Experimental data as given in patent US10681909B2, “Herbicidal triazoles” (FMC Corporation, priority 2014, dated 2020).

Key:
Experiment in all cases: Test E preemergence
[1] = system: crabgrass, large; type: in vivo, Digitaria sanguinalis; conditions: scale 0 to 100
Source text: (§1) Seeds of plant species selected from corn (Zea mays), soybean (Glycine max), lambsquarters (Chenopodium album), poinsettia, wild (wild poinsettia, Euphorbia heterophylla), pigweed, palmer (palmer pigweed, Amaranthus palmeri), waterhemp (common waterhemp, Amaranthus rudis), surinam grass (Brachiaria decumbens), crabgrass, large (large crabgrass, Digitaria sanguinalis), crabgrass, Brazilian (Brazilian crabgrass, Digitaria horizontalis), panicum, fall (fall panicum, Panicum dichotomiflorum), foxtail, giant (giant foxtail, Setaria faberii), foxtail, green (green foxtail, Setaria viridis), goosegrass (Eleusine indica), johnsongrass (Sorghum halepense), ragweed (common ragweed, Ambrosia elatior), barnyardgrass (Echinochloa crus-galli), sandbur (southern sandbur, Cenchrus echinatus), arrowleaf sida (Sida rhombifolia), ryegrass, Italian (Italian ryegrass, Lolium multiflorum), dayflower, VA (Virginia dayflower, Commelina virginica), field bindweed (Convolvulus arvensis), cocklebur (common cocklebur, Xanthium strumarium), morningglory (Ipomoea coccinea), nightshade (eastern black nightshade, Solanum ptycanthum), kochia (Kochia scoparia), nutsedge, yellow (yellow nutsedge, Cyperus esculentus), smartweed (ladysthumb smartweed, Polygonum persicaria), velvetleaf (Abutilon theophrasti), horseweed (Conyza canadensis), and beggarticks (hairy beggarticks, Bidens pilosa), were planted into a silt loam soil and treated preemergence with test chemicals formulated in a non-phytotoxic solvent mixture which included a surfactant.
(§2) At the same time, plants from these crop and weed species and also waterhemp_RES1, (ALS & Triazine resistant common waterhemp, Amaranthus rudis), and waterhemp_RES2, (ALS & HPPD resistant common waterhemp, Amaranthus rudis) were planted in pots containing Sunshine Redi-Earth® planting medium comprising spaghnum peat moss, vermiculite, starter nutrients and dolomitic limestone were treated with postemergence applications of test chemicals formulated in the same manner. Plants ranged in height from 2 to 18 cm for postemergence treatments (1- to 4-leaf stage). Treated plants and controls were maintained in a greenhouse for 14 to 21 d, after which time all species were compared to controls and visually evaluated. Plant response ratings, summarized in Table E, are based on a scale of 0 to 100 where 0 is no effect and 100 is complete control. A dash (-) response means no test result.

[2] = system: beggarticks; type: in vivo, Bidens pilosa; conditions: scale 0 to 100
Source text: as §1, §2

[3] = system: soybean; type: in vivo, Glycine max; conditions: scale 0 to 100
Source text: as §1, §2

[4] = system: surinam grass; type: in vivo, Brachiaria decumbens; conditions: scale 0 to 100
Source text: as §1, §2

[5] = system: kochia; type: in vivo, Kochia scoparia; conditions: scale 0 to 100
Source text: as §1, §2

[6] = system: corn; type: in vivo, Zea mays; conditions: scale 0 to 100
Source text: as §1, §2

[7] = system: morningglory; type: in vivo, Ipomoea coccinea; conditions: scale 0 to 100
Source text: as §1, §2

[8] = system: goosegrass; type: in vivo, Eleusine indica; conditions: scale 0 to 100
Source text: as §1, §2

[9] = system: dayflower, VA; type: in vivo, Commelina virginica; conditions: scale 0 to 100
Source text: as §1, §2

[10] = system: barnyardgrass; type: in vivo, Echinochloa crus-galli; conditions: scale 0 to 100
Source text: as §1, §2

[11] = system: ragweed; type: in vivo, Ambrosia elatior; conditions: scale 0 to 100
Source text: as §1, §2

[12] = system: crabgrass, Brazilian; type: in vivo, Digitaria horizontalis; conditions: Brazil, scale 0 to 100
Source text: as §1, §2

Work on `CCOc1nc(-c2ccc(F)cc2)nn1Cc1ccnc(C(F)(F)F)c1` [Compound 8, 4-[[5-ethoxy-3-(4-fluorophenyl)-1H-1,2,4-triazol-1-yl]methyl]-2-(trifluoromethyl)pyridine] yielded a Plant response rating ([1]; 62 g ai/ha) of 100, a Plant response rating ([1]; 125 g ai/ha) of 100 and a Plant response rating ([2]; 62 g ai/ha) of 20. The Plant response rating ([2]; 125 g ai/ha) was 20, the Plant response rating ([3]; 62 g ai/ha) was 50 and the Plant response rating ([3]; 125 g ai/ha) was 50. For the same molecule, the Plant response rating ([4]; 62 g ai/ha) was 50, the Plant response rating ([4]; 125 g ai/ha) was 75 and the Plant response rating ([5]; 62 g ai/ha) was 100. It also gave a Plant response rating ([5]; 125 g ai/ha) of 100, a Plant response rating ([6]; 62 g ai/ha) of 25 and a Plant response rating ([6]; 125 g ai/ha) of 65. The Plant response rating ([7]; 62 g ai/ha) was 70, the Plant response rating ([7]; 125 g ai/ha) was 100 and the Plant response rating ([8]; 62 g ai/ha) was 100. It also gave a Plant response rating ([8]; 125 g ai/ha) of 100, a Plant response rating ([9]; 62 g ai/ha) of 65 and a Plant response rating ([9]; 125 g ai/ha) of 95. The Plant response rating ([10]; 62 g ai/ha) was 75, the Plant response rating ([10]; 125 g ai/ha) was 95 and the Plant response rating ([11]; 62 g ai/ha) was 80. The Plant response rating ([11]; 125 g ai/ha) was 90, the Plant response rating ([12]; 62 g ai/ha) was 100 and the Plant response rating ([12]; 125 g ai/ha) was 100.
`CCCc1nc(-c2ccc(F)cc2)nn1Cc1ccnc(C(F)(F)F)c1` [Compound 6, 4-[[3-(4-fluorophenyl)-5-propyl-1H-1,2,4-triazol-1-yl]methyl]-2-(trifluoromethyl)pyridine] was tested, and the Plant response rating ([1]; 62 g ai/ha) was 90, the Plant response rating ([1]; 125 g ai/ha) was 100 and the Plant response rating ([1]; 250 g ai/ha) was 100. For the same molecule, the Plant response rating ([2]; 16 g ai/ha) was 0, the Plant response rating ([2]; 31 g ai/ha) was 0 and the Plant response rating ([2]; 62 g ai/ha) was 0. It also gave a Plant response rating ([2]; 125 g ai/ha) of 20, a Plant response rating ([2]; 250 g ai/ha) of 70 and a Plant response rating ([3]; 16 g ai/ha) of 0. For the same molecule, the Plant response rating ([3]; 31 g ai/ha) was 10, the Plant response rating ([3]; 62 g ai/ha) was 40 and the Plant response rating ([3]; 125 g ai/ha) was 50. For the same molecule, the Plant response rating ([3]; 250 g ai/ha) was 70, the Plant response rating ([4]; 16 g ai/ha) was 20 and the Plant response rating ([4]; 31 g ai/ha) was 40. The Plant response rating ([4]; 62 g ai/ha) was 40, the Plant response rating ([4]; 125 g ai/ha) was 50 and the Plant response rating ([4]; 250 g ai/ha) was 50. The Plant response rating ([5]; 16 g ai/ha) was 60, the Plant response rating ([5]; 31 g ai/ha) was 80 and the Plant response rating ([5]; 62 g ai/ha) was 80. It also gave a Plant response rating ([5]; 125 g ai/ha) of 85, a Plant response rating ([5]; 250 g ai/ha) of 100 and a Plant response rating ([6]; 16 g ai/ha) of 0. The Plant response rating ([6]; 31 g ai/ha) was 15, the Plant response rating ([6]; 62 g ai/ha) was 30 and the Plant response rating ([6]; 125 g ai/ha) was 50. The Plant response rating ([6]; 250 g ai/ha) was 60, the Plant response rating ([7]; 31 g ai/ha) was 10 and the Plant response rating ([7]; 62 g ai/ha) was 10. For the same molecule, the Plant response rating ([7]; 125 g ai/ha) was 30, the Plant response rating ([8]; 16 g ai/ha) was 15 and the Plant response rating ([8]; 31 g ai/ha) was 50. It also gave a Plant response rating ([8]; 62 g ai/ha) of 50, a Plant response rating ([8]; 125 g ai/ha) of 75 and a Plant response rating ([8]; 250 g ai/ha) of 100. The Plant response rating ([9]; 16 g ai/ha) was 10, the Plant response rating ([9]; 31 g ai/ha) was 60 and the Plant response rating ([9]; 62 g ai/ha) was 70. For the same molecule, the Plant response rating ([9]; 125 g ai/ha) was 80, the Plant response rating ([9]; 250 g ai/ha) was 90 and the Plant response rating ([10]; 16 g ai/ha) was 10. It also gave a Plant response rating ([10]; 31 g ai/ha) of 40, a Plant response rating ([10]; 62 g ai/ha) of 50 and a Plant response rating ([10]; 125 g ai/ha) of 60. For the same molecule, the Plant response rating ([10]; 250 g ai/ha) was 75, the Plant response rating ([11]; 16 g ai/ha) was 10 and the Plant response rating ([11]; 31 g ai/ha) was 20. The Plant response rating ([11]; 62 g ai/ha) was 20, the Plant response rating ([11]; 125 g ai/ha) was 50 and the Plant response rating ([11]; 250 g ai/ha) was 90. For the same molecule, the Plant response rating ([12]; 16 g ai/ha) was 75, the Plant response rating ([12]; 31 g ai/ha) was 80 and the Plant response rating ([12]; 62 g ai/ha) was 100. It also gave a Plant response rating ([12]; 125 g ai/ha) of 100 and a Plant response rating ([12]; 250 g ai/ha) of 100.
